Results as given in patent US10544117B2, “5-hydroxytryptamine receptor 7 activity modulators and their method of use” (Temple University—Of the Commonwealth System of Higher …, priority 2014, dated 2020).

Target: Serotonin 5HT7 receptors (Homo sapiens (Human), UniProt P34969)
Experiment: Radiolabel Binding Studies for Serotonin 5HT7 receptors
Details: for IC50: membranes of cells expressing recombinant 5HT7 receptors; for inhibition at 10 µM: read-out: 5-HT7 % inhib @ 10 uM
Procedure: Radiolabel Binding Studies for Serotonin 5HT7 receptors, method 1:
Eleven dilutions (5× assay concentration) of the compound of the disclosure and chlorpromazine are prepared in the Assay Buffer by serial dilution to yield final corresponding assay concentrations ranging from 10 pM to 10 μM.
(§1) A stock concentration of 5 nM [^3H]LSD (lysergic acid diethyl amide) is prepared in 50 mM Tris-HCl, 10 mM MgCl2, 1 mM EDTA, pH 7.4 (Assay Buffer). Aliquots (50 μl) of radioligand are dispensed into the wells of a 96-well plate containing 100 μl of Assay Buffer. Duplicate 50-μl aliquots of the compound of the disclosure test and chlorpromazine positive control reference compound serial dilutions are added.
Membrane fractions of cells expressing recombinant 5HT7 receptors (50 μL) are dispensed into each well. The membranes are prepared from stably transfected cell lines expressing 5HT7 receptors cultured on 10-cm plates by harvesting PBS-rinsed monolayers, resuspending and lysing in chilled, hypotonic 50 mM Tris-HCl, pH 7.4, centrifuging at 20,000×g, decanting the supernatant and storing at −80° C.; the membrane preparations are resuspended in 3 ml of chilled Assay Buffer and homogenized by several passages through a 26 gauge needle before using in the assay.
The 250-μl reactions are incubated at room temperature for 1.5 hours, then harvested by rapid filtration onto 0.3% polyethyleneimine-treated, 96-well filter mats using a 96-well Filtermate harvester. Four rapid 500-μl washes are performed with chilled Assay Buffer to reduce non-specific binding. The filter mats are dried, then scintillant is added to the filters and the radioactivity retained on the filters is counted in a Microbeta scintillation counter.
Raw data (dpm) representing total radioligand binding (i.e., specific+non-specific binding) are plotted as a function of the logarithm of the molar concentration of the competitor (i.e., test or reference compound).
Radiolabel Binding Studies for Serotonin 5-HT7 receptors, method 2:
as §1, with “[^3H]-5-Hydroxytryptamine ([^3H]-5HT)” for “[^3H]LSD (lysergic acid diethyl amide)”

Row | Compound | IC50 [nM] | inhibition at 10 µM [%] | 5-HT7 % inhib @ 10 uM (single concentration of 10 uM, percent inhibition of radioligand binding) [%]
1 | O=C1OC(CCN2CCN(c3ccc4[nH]ccc4c3)CC2)CC12CCCCC2 (centres unmarked) [Entry 160146] | 65.3 | 97.9 | –
2 | O=C1OC(CCN2CCN(c3ccc4[nH]c(=O)[nH]c4c3)CC2)CC12CCC2 (centres unmarked) [Entry 160152] | 2250 | 59.5 | –
3 | O=C1OC(CCN2CCN(c3ccc4[nH]ccc4c3)CC2)CC12CCC2 (centres unmarked) [Entry 160148] | 88 | 96.5 | –
4 | COc1ccccc1N1CCN(CCC2CC3(CCC3)C(=O)O2)CC1 (centres unmarked) [Entry 230015] | 319 | 83.4 | –
5 | COc1ccccc1N1CCN(CCC2CC3(CCCC3)C(=O)O2)CC1 (centres unmarked) [Entry 230013] | 146 | 90.9 | –
6 | O=C1OC(CCN2CCN(c3ccc4[nH]c(=O)[nH]c4c3)CC2)CC12CCCC2 (centres unmarked) [Entry 160151] | – | 35.9 | –
7 | CCC1(CC)CC(CCCN2CCN(c3ccccc3)CC2)OC1=O (centres unmarked) [Entry 230057] | 55 | 98.5 | –
8 | CS(=O)(=O)Nc1ccc(N2CCN(CCC3CC4(CCCC4)C(=O)O3)CC2)cc1 (centres unmarked) [Entry 230008] | – | 33.2 | –
9 | Nc1cc(N2CCN(CCC3CC4(CCCCC4)C(=O)O3)CC2)ccc1[N+](=O)[O-] (centres unmarked) [Entry 160149] | 500 | 84.7 | –
10 | O=C1OC(CCN2CCN(c3ccnc(Cl)c3)CC2)CC12CCCCC2 (centres unmarked) [Entry 160153] | 4360 | 58.2 | –
11 | CCC1(CC)CC(CCCN2CCN(c3ccc(C#N)cc3)CC2)OC1=O (centres unmarked) [Entry 230058] | 965 | 78.6 | –
12 | O=C1OC(CCN2CCN(c3ccccc3O)CC2)CC12CCC2 (centres unmarked) [Entry 230016] | 299 | 84.7 | –
13 | O=C1OC(CCN2CCN(c3ccc4[nH]c(=O)[nH]c4c3)CC2)CC12CCCCC2 (centres unmarked) [Entry 160150] | 1230 | 76.9 | –
14 | N#Cc1ccnc(N2CCN(CCC3CC4(CCCC4)C(=O)O3)CC2)c1 (centres unmarked) [Entry 230012] | 436 | 76.6 | –
15 | O=C1OC(CCN2CCN(c3ccc(Cl)cn3)CC2)CC12CCCCC2 (centres unmarked) [Entry 160145] | 33 | – | 96.7
16 | O=C1OC(CCN2CCN(c3ccccc3O)CC2)CC12CCCC2 (centres unmarked) [Entry 230014] | 78 | 91.5 | –
17 | O=C1OC(CCN2CCN(c3ccc4[nH]ccc4c3)CC2)CC12CCCC2 (centres unmarked) [Entry 160147] | – | 9 | –
18 | COc1ccc(N2CCN(CC[C@H]3CC(C)(C)C(=O)O3)CC2)cc1 [Entry 230046] | 10000 | 53.5 | –
19 | O=C1OC(CCN2CCN(c3ccnc(Cl)c3)CC2)CC12CCCC2 (centres unmarked) [Entry 230011] | – | 40.3 | –
20 | COc1ccc(N2CCN(CC[C@@H]3CC(C)(C)C(=O)O3)CC2)cc1 [Entry 230039] | 10000 | 42.6 | –
21 | O=C1OC(CCN2CCN(c3cc(Cl)ccn3)CC2)CC12CCCC2 (centres unmarked) [Entry 230010] | – | 33.5 | –

Continued, in another order:

Row | IC50 [nM] | inhibition at 10 µM [%] | Compound | 5-HT7 % inhib @ 10 uM (single concentration of 10 uM, percent inhibition of radioligand binding) [%]
22 | 10000 | 44 | CCC1(CC)CC(CCN2CCN(c3ccc4nc(C(F)(F)F)[nH]c4c3)CC2)OC1=O (centres unmarked) [Entry 230068] | –
23 | 7.5 | 100 | CCC1(CC)CC(CCN2CCc3ccc(Cl)cc3C2)OC1=O (centres unmarked) [Entry 230070] | –
24 | 5820 | 51 | CCC1(CC)C[C@H](CCN2CCN(c3ccncc3)CC2)OC1=O [Entry 230083] | –
25 | 12 | 98.6 | CCC1(CC)CC(CCCN2CCN(c3ccccc3C(C)C)CC2)OC1=O (centres unmarked) [Entry 230062] | –
26 | 93 | 98.9 | CCC1(CC)CC(CCCN2CCN(c3ccccn3)CC2)OC1=O (centres unmarked) [Entry 230063] | –
27 | 9.9 | 99.3 | CCC1(CC)CC(CCN2CCc3ccc(F)cc3C2)OC1=O (centres unmarked) [Entry 230071] | –
28 | 10000 | 43.6 | CCC1(CC)CC(CCCN2CCN(c3ccc(OC)cc3)CC2)OC1=O (centres unmarked) [Entry 230060] | –
29 | 168 | 94.9 | CCC1(CC)CC(CCCN2CCN(c3ccc(C)cc3)CC2)OC1=O (centres unmarked) [Entry 230061] | –
30 | 353 | 88.8 | CCC1(CC)CC(CCCN2CCN(c3ccc(O)cc3)CC2)OC1=O (centres unmarked) [Entry 230059] | –
31 | 10000 | – | CCC1(CC)CC(CCN2CCN(c3ccc4nc(C)[nH]c4c3)CC2)OC1=O (centres unmarked) [Entry 230069] | –
